Experimental data taken from publication PMC6700280, “Identification of Novel 3-Hydroxy-pyran-4-One Derivatives as Potent HIV-1 Integrase Inhibitors Using in silico Structure-Based Combinatorial Library Design Approach” (Frontiers in Chemistry, 2019).
Read-outs that look alike come from different tables or passages of the source.

Tests used:
[1] = biological target: T1, HIV-1 IN strand transfer activity (Human immunodeficiency virus type 1 group M subtype B, UniProt P04585); parameters: method as in Sirous et al., 2019; conditions: read-out: HIV-1 IN strand transfer activity inhibition IC50; previously reported lead; ref Sirous et al., 2019; cited from earlier work
HIV-1 [2] = test system: HIV-1; parameters: method as in Sirous et al., 2019; conditions: MT-4 cells; previously reported lead; ref Sirous et al., 2019; read-out: HIV-1 activity inhibition EC50; cited from earlier work
MT-4 cells [3] = test system: MT-4 cells; parameters: method as in Sirous et al., 2019; conditions: previously reported lead, cited from earlier work; for CC50: ref Sirous et al., 2019, read-out: Cellular toxicity CC50; for TI (therapeutic index, CC50/EC50 ratio): ref Sirous et al., 2019
HIV-1 IN [4] = biological target: T2, HIV-1 IN (Human immunodeficiency virus type 1 group M subtype B, UniProt P04585); parameters: method as in Sirous et al., 2019; conditions: read-out: Overall HIV-1 IN activity inhibition IC50; previously reported lead; ref Sirous et al., 2019; cited from earlier work
HIV-1 IN [5] = biological target: T2, HIV-1 IN; assay: Overall HIV-1 IN integration assay (ELISA); format: biochemical
[6] = biological target: T1, HIV-1 IN strand transfer activity; assay: HIV-1 IN strand transfer assay (ELISA, pre-cleaved oligonucleotide substrate)
Description: The enzymatic integration reactions were carried out as previously described with minor modifications (Debyser et al., [2001]; Christ et al., [2011]). To determine the susceptibility of the HIV-1 IN enzyme to different compounds, an enzyme-linked immunosorbent assay (ELISA) adapted from Hwang et al. was used (Hwang et al., [2000]). The overall integration assay uses an oligonucleotide substrate for which one oligonucleotide (5′-[sequence]-3′) is labeled with biotin at the 3′ end and the other oligonucleotide (5′-[sequence]-3′) is labeled with digoxigenin at the 5′ end. For the strand transfer assay, a pre-cleaved oligonucleotide substrate (the second oligonucleotide lacks GT [underlined] at the 3′ end) was used. The IN enzyme was diluted in 750 mM NaCl, 10 mM Tris (pH: 7.6), 10% glycerol, and 1 mM β-mercaptoethanol. To perform the reaction, 4 μL of diluted IN (corresponding to a concentration of 1.6 μM) and 4 μL of annealed oligonucleotides (7 nM) were added in a final reaction volume of 40 μL containing 10 mM MgCl2, 5 mM dithiothreitol, 20 mM HEPES (pH 7.5), 5% polyethylene glycol, and 15% dimethyl sulfoxide. As such, the final concentration of IN in this assay was 160 nM. The reaction was carried out for 1 h at 37°C. Reaction products were denatured with 30 mM NaOH and detected by ELISA on avidin-coated plates.

HIV-1 [7] = assay: MT-4/MTT anti-HIV assay (HIV-induced cytopathic effect); format: cell-based; conditions: Human immunodeficiency virus 1, MT4; MT-4 cells; read-out: HIV-1 activity inhibition EC50
Description: The inhibitory effect of antiviral drugs on the HIV-induced cytopathic effect (CPE) in human lymphocyte MT-4 cell culture was determined by the MT-4/MTT-assay (Pauwels et al., [1988]). This assay is based on the reduction of the yellow colored 3-(4,5-dimethylthiazol-2-yl)-2,5-diphenyltetrazolium bromide (MTT) by mitochondrial dehydrogenase of metabolically active cells to a blue formazan derivative, which can be measured spectrophotometrically. The 50% cell culture infective dose of the HIV strains was determined by titration of the virus stock using MT-4 cells. For the drug susceptibility assays, MT-4 cells were infected with 100–300 50% cell culture infective doses of the HIV strains in the presence of 5-fold serial dilutions of the antiviral drugs. The concentration of the compound achieving 50% protection against the CPE of HIV, which is defined as the 50% effective concentration (EC50), was determined. In parallel, the concentration of the compound destroying 50% of the MT-4 cells, which is defined as the 50% cytotoxic concentration (CC50), was determined as well.

MT-4 cells [8] = assay: MT-4/MTT cytotoxicity assay; format: cell-based, human
Description: (§1) The inhibitory effect of antiviral drugs on the HIV-induced cytopathic effect (CPE) in human lymphocyte MT-4 cell culture was determined by the MT-4/MTT-assay (Pauwels et al., [1988]). […] The 50% cell culture infective dose of the HIV strains was determined by titration of the virus stock using MT-4 cells. For the drug susceptibility assays, MT-4 cells were infected with 100–300 50% cell culture infective doses of the HIV strains in the presence of 5-fold serial dilutions of the antiviral drugs. […] In parallel, the concentration of the compound destroying 50% of the MT-4 cells, which is defined as the 50% cytotoxic concentration (CC50), was determined as well.

[9] = MT-4/MTT cytotoxicity assay; format: cell-based, human; conditions: human, MT-4 cells; read-out: Cellular toxicity CC50
Description: as §1

Cc1cc(=O)c(O)c(C(=O)NCc2ccc(Cl)cc2)o1 [HPd]
IC50 [1]: 1540 ± 200 nM | EC50 (HIV-1 [2]): 1950 ± 930 nM | CC50 (MT-4 cells [3]): 196000 ± 4400 nM | TI (therapeutic index, CC50/EC50 ratio) (MT-4 cells [3]): 100.3 | IC50 (HIV-1 IN [4]): 700 ± 310 nM

Cc1nc(-c2cccc(CNC(=O)c3oc(C)cc(=O)c3O)c2)c[nH]1 [HPCAR-89, 3-Hydroxy-6-methyl-N-(3-(2-methyl-1H-imidazol-4-yl)benzyl)-4-oxo-4H-pyran-2 carboxamide]
IC50 (HIV-1 IN [5]): 270 ± 100 nM | IC50 [6]: 4000 ± 340 nM | EC50 (HIV-1 [7]): 2340 ± 460 nM | TI (therapeutic index, CC50/EC50 ratio) (MT-4 cells [8]): >53.4 | CC50 [9]: > 125000 nM

Cc1cc(=O)c(O)c(C(=O)NCc2cccc(-n3cccc3)c2)o1 [HPCAR-142, N-(3-(1H-Pyrrol-1-yl)benzyl)-3-hydroxy-6-methyl-4-oxo-4H-pyran-2-carboxamide]
IC50 (HIV-1 IN [5]): 1970 ± 1060 nM | IC50 [6]: 17490 ± 130 nM | EC50 (HIV-1 [7]): 4210 ± 520 nM | TI (therapeutic index, CC50/EC50 ratio) (MT-4 cells [8]): >20.3 | CC50 [9]: > 85400 nM

Cc1cc(=O)c(O)c(C(=O)NCc2cc(F)cc(-c3ccccn3)c2)o1 [HPCAR-28, N-(3-Fluoro-5-(pyridin-2-yl)benzyl)-3-hydroxy-6-methyl-4-oxo-4H-pyran-2-carboxamide]
IC50 (HIV-1 IN [5]): 65 ± 10 nM | improvement in anti-IN potency compared to HPb (HIV-1 IN [5]; vs HPb IC50 = 0.37 μM): 6 fold | IC50 [6]: 3370 ± 380 nM | EC50 (HIV-1 [7]): 230 ± 180 nM | TI (therapeutic index, CC50/EC50 ratio) (MT-4 cells [8]): >1,087 | CC50 [9]: > 250000 nM

Cc1cc(=O)c(O)c(C(=O)NCc2ccc(F)cc2)o1 [HPb]
IC50 [1]: 1405 ± 10 nM | EC50 (HIV-1 [2]): 1720 ± 990 nM | CC50 (MT-4 cells [3]): > 250000 nM | TI (therapeutic index, CC50/EC50 ratio) (MT-4 cells [3]): >145 | IC50 (HIV-1 IN [4]): 370 ± 170 nM

Cc1nnc(C(=O)NC(C)(C)c2nc(C(=O)NCc3ccc(F)cc3)c(O)c(=O)n2C)o1 [RLT, Raltegravir, reference compound]
EC50 (HIV-1 [7]): 13 ± 8 nM | CC50 [9]: > 18300 nM
